# Results published in US9428819B1, “Method for synthesizing noble metal nanoparticles using dead cancer cells” (KING SAUD UNIVERSITY, priority 2016, dated 2016).
# Assays:
# Assay in all cases: Antimicrobial activity, diffusion Agar technique
# Type in all cases: cell-based
# Details in all cases: beyond the initial well diameter of 6 mm
# [1] = test system: Aspergillus fumigatus (RCMB 02567)
# Method: (§1) The noble metal nanoparticles prepared by the present methods can be formulated into a composition effective as an antifungal and as an antibacterial agent (Gram positive and gram negative). […] The fungal and bacterial inhibition trial was conducted using the diffusion Agar technique. The data are expressed in the form of (M±S.D.): mean±standard deviation; wherein M represents the diameter of the inhibition zone, measured in millimeters (mm) beyond the initial well diameter of 6 mm.
# [2] = test system: Bacillis subtilis (RCMB 010068)
# Method: as §1
# [3] = test system: Streptococcus pneumoniae (RCMB 010011)
# Method: as §1
# [4] = test system: Escherichia coli (RCMB 010054)
# Method: as §1
compound,measurement,setting,value
C[C@@H]1[C@H](O)[C@@H](C)/C=C/C=C/C=C/C=C/C=C/C=C/C=C/[C@H](O[C@@H]2O[C@H](C)[C@@H](O)[C@H](N)[C@@H]2O)C[C@@H]2O[C@](O)(C[C@@H](O)C[C@@H](O)[C@H](O)CC[C@@H](O)C[C@@H](O)CC(=O)O[C@H]1C)C[C@H](O)[C@H]2C(=O)O [Amphotericin B],diameter of the inhibition zone (mean ± S.D.),[1],21.7 ± 1.5 mm
CC1(C)S[C@@H]2[C@H](NC(=O)[C@H](N)c3ccccc3)C(=O)N2[C@H]1C(=O)O [Ampicillin],diameter of the inhibition zone (mean ± S.D.),[2],31.3 ± 1.5 mm
same,diameter of the inhibition zone (mean ± S.D.),[3],21.0 ± 1.0 mm
Gentamicin,diameter of the inhibition zone (mean ± S.D.),[4],20.3 ± 0.58 mm
